Values after ≈ are worked out from the molar mass of the structure shown. Read-outs that look alike come from different tables or passages of the source. Residues, ends and D or L forms follow the SMILES beside them.
How the values were obtained:
A. baumannii = assay: microbe, parasite or virus in culture
Summary of the method: (§1)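 Broth microdilution in MHB, 2-fold 12-point series from 128 or 64 down to 0.06 or 0.03 μg mL^−1, 5 × 10^5 CFU mL^−1. Extra runs in CAMHB per CLSI and in MHB with 1% agarose; n ≥ 6.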

B. subtilis = assay: microbe, parasite or virus in culture; details: for MIC: Bacillus subtilis
Summary of the method: as §1

C. albicans = assay: microbe, parasite or virus in culture
C. neoformans = assay: microbe, parasite or virus in culture
K. pneumoniae = assay: microbe, parasite or virus in culture
Summary of the method: as §1

L. monocytogenes = assay: microbe, parasite or virus in culture
Summary of the method: as §1

P. aeruginosa = assay: microbe, parasite or virus in culture
Summary of the method: as §1

S. enterica Typhi = assay: microbe, parasite or virus in culture
Summary of the method: as §1

E. coli ATCC 25922 = assay: microbe, parasite or virus in culture; format: cell-based, Escherichia coli; details: ATCC 25922
Summary of the method: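 Broth microdilution MIC in Mueller Hinton broth, 12-point 2-fold series from 128 or 64 down to 0.06 or 0.03 μg mL^−1, 5 × 10^5 CFU mL^−1 inoculum. Read visually after 18-20 h at 37 °C without shaking; n ≥ 6. Additional tests in CAMHB, and in MHB with 1% agarose.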

in vitro = details: human
[1] = system: HEK-293 human embryonic kidney cells; assay: in vitro
[2] = system: HK-2 human kidney proximal tubule cells; assay: in vitro
[3] = system: HepG2 liver hepatocellular carcinoma cells; assay: in vitro
[4] = system: human erythrocytes (HRBC); format: cell-based
S. aureus = assay: microbe, parasite or virus in culture; details: Staphylococcus aureus, mode of 6 replicates
Summary of the method: as §1

SMILES: CC(C)[C@@H]1NC(=O)CNC(=O)[C@H](CC(N)=O)NC(=O)[C@H](CCCNC(=N)N)NC(=O)[C@H](Cc2ccc(O)cc2)NC(=O)[C@H](C(C)C)NC(=O)[C@@H]2CSSC[C@H](NC(=O)[C@H](C(C)C)NC(=O)[C@H](CCCNC(=N)N)NC1=O)C(=O)N[C@@H](Cc1ccc(O)cc1)C(=O)N[C@@H](CCCNC(=N)N)C(=O)N[C@@H](CCCNC(=N)N)C(=O)N[C@H](C(=O)N[C@@H](CC(N)=O)C(=O)O)CSSC[C@H](NC(=O)[C@H](Cc1ccccc1)NC(=O)CN)C(=O)N[C@@H](Cc1c[nH]c3ccccc13)C(=O)N[C@@H](Cc1ccc(O)cc1)C(=O)N[C@@H](C(C)C)C(=O)N2 [Arenicin-3] (HELM PEPTIDE1{G.F.C.W.Y.V.C.V.Y.R.N.G.V.R.V.C.Y.R.R.C.N}$PEPTIDE1,PEPTIDE1,3:R3-20:R3|PEPTIDE1,PEPTIDE1,7:R3-16:R3$$$V2.0)
- BMD MIC (A. baumannii): 1 mg/L
- BMD MIC (B. subtilis): 8 mg/L
- BMD MIC (C. albicans): >32 mg/L
- BMD MIC (C. albicans; 24 h): >64 mg/L
- BMD MIC (C. neoformans): 1 mg/L
- BMD MIC (K. pneumoniae): 1 mg/L
- BMD MIC (L. monocytogenes): 8 mg/L
- BMD MIC (P. aeruginosa): 1 mg/L
- BMD MIC (S. enterica Typhi; Typhi): 2 mg/L
- MIC, MHB (E. coli ATCC 25922): 1 mg/L (≈ 0.383 µM)
- CC50 at 24 h (in vitro; HEK-293 cells): 271 mg/L (≈ 104 µM)
- CC50 at 24 h (in vitro; HK-2 cells): 170 mg/L (≈ 65.1 µM)
- CC50 HEK293, Mean [1]: 271 mg/L (≈ 104 µM)
- CC50 HK2, Mean [2]: 170 mg/L (≈ 65.1 µM)
- CC50 HepG2 [3]: >300 mg/L
- CC50 HepG2, Mean [3]: >300 mg/L
- CC50 HepG2 ([3]; human, HepG2 cells, 24 h): >300 mg/L
- Heamolysis HC10, Mean [4]: 204 µg/mL

SMILES: CN[C@H](CC(C)C)C(=O)N[C@H]1C(=O)N[C@@H](CC(N)=O)C(=O)N[C@H]2C(=O)N[C@H]3C(=O)N[C@H](C(=O)N[C@H](C(=O)O)c4cc(O)cc(O)c4-c4cc3ccc4O)[C@H](O)c3ccc(c(Cl)c3)Oc3cc2cc(c3O[C@@H]2O[C@H](CO)[C@@H](O)[C@H](O)[C@H]2O[C@H]2C[C@](C)(N)[C@H](O)[C@H](C)O2)Oc2ccc(cc2Cl)[C@H]1O [Vancomycin, reference compound]
- MIC (B. subtilis; ATCC6051 / NRS744, read-out: BMD MIC): 0.25 mg/L (≈ 0.173 µM)
- MIC (B. subtilis; ATCC6633 / NRS231, read-out: BMD MIC): 0.25 mg/L (≈ 0.173 µM)
- MIC (L. monocytogenes; Listeria monocytogenes, ATCC19112, read-out: BMD MIC): 4 mg/L (≈ 2.76 µM)
- MIC (S. aureus; ATCC25923|MSSA, read-out: BMD MIC, S. aureus ATCC 25923 MSSA, CAMHB): 2 mg/L (≈ 1.38 µM)
- MIC (S. aureus; ATCC25923|MSSA, read-out: BMD MIC, S. aureus ATCC 25923 MSSA, MHB): 1 mg/L (≈ 0.69 µM)
- MIC (S. aureus; ATCC43300|MRSA, read-out: BMD MIC, S. aureus ATCC 43300 MRSA, MHB): 1 mg/L (≈ 0.69 µM)
- MIC (S. enterica Typhi; Salmonella enterica, ATCC14028 / TYPHI, read-out: BMD MIC): > 64 mg/L
